Test results reported in PubChem BioAssay (NCI).
Values joined by “and” are separate entries in the source; they are usually repeats but may differ in a detail not shown here. Equal values may be shown once.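 48-hour exposure; five concentrations; linearly interpolated endpoints. GI50 = concentration required for 50% inhibition of growth. TGI: total growth inhibition.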

Assays:
Assay in all cases: NCI-60 cell line screen, 48 h
SF-539 CNS = test system: SF-539 CNS
SW-620 colon = test system: SW-620 colon
HCC-2998 colon = test system: HCC-2998 colon
CCRF-CEM leukemia = test system: CCRF-CEM leukemia
HCT-15 colon = test system: HCT-15 colon
MALME-3M melanoma = test system: MALME-3M melanoma
K-562 leukemia = test system: K-562 leukemia
EKVX NSCLC = test system: EKVX NSCLC
OVCAR-4 ovarian = test system: OVCAR-4 ovarian
ACHN renal = test system: ACHN renal

Row | SMILES | GI50 (SF-539 CNS) [µM] | TGI (SF-539 CNS) | GI50 (SW-620 colon) [µM] | TGI (SW-620 colon) | GI50 (HCC-2998 colon) [µM] | TGI (HCC-2998 colon) | GI50 (CCRF-CEM leukemia) [µM] | TGI (CCRF-CEM leukemia) | GI50 (HCT-15 colon) [µM] | TGI (HCT-15 colon) | GI50 (MALME-3M melanoma) [µM] | TGI (MALME-3M melanoma) [µM] | GI50 (K-562 leukemia) [µM] | TGI (K-562 leukemia) | GI50 (EKVX NSCLC) [µM] | TGI (EKVX NSCLC) [µM] | GI50 (OVCAR-4 ovarian) [µM] | TGI (OVCAR-4 ovarian) | GI50 (ACHN renal) [µM] | TGI (ACHN renal)
1 | COc1ccc(-c2nn3ncccc3c2-c2ccnc(Nc3ccc(Cl)c(C(F)(F)F)c3)n2)cc1 | > 18.9 | > 25 µM | 14.4 | > 25 µM | 6.42 | 20.8 µM | 8.37 | > 25 µM | 9.97 | > 25 µM | 10.8 | > 25 | 10.8 | > 25 µM | 7.84 | > 25 | 8.66 | > 25 µM | 10.1 | > 25 µM
2 | CN1CCN(CN2C(=O)C3C4C=CC(C3C2=O)C2C3C(=O)N(CN5CCN(C)CC5)C(=O)C3C42)CC1 (stereo unspecified) |  | 44.4 µM and 45.4 µM and 49.1 µM |  | 43.2 µM and > 60.8 µM and 35.1 µM |  | 89.2 µM and 51.5 µM and 79 µM |  | 65.3 µM and 42 µM and 48.3 µM |  | 34.8 µM and 42.1 µM and 30.3 µM |  | 34.2 |  | 81.4 µM and 55.6 µM and 58.2 µM | > 100 | > 100 |  | 38.4 µM and 45.1 µM and 53.5 µM |  | 73.6 µM and > 61.3 µM and 48.5 µM
3 | N=C1C(c2nc(-c3ccc(Br)cc3)cs2)=C(O)CN1Cc1cccnc1 | 15.5 | 84.8 µM | 4.75 | 26.7 µM | 24.3 | 80.4 µM | 4.28 | 65.8 µM | 24.4 | > 100 µM | 14.6 | > 100 | 8.17 | > 100 µM | 56.6 | > 100 | 25.1 | > 100 µM | 16.4 | 98.8 µM
4 | C=CCn1c2c(c3ccccc3c1=O)C(=O)c1ccccc1-2 |  | > 100 µM |  | > 100 µM |  | > 100 µM |  | > 100 µM |  | > 100 µM |  | > 100 |  | > 100 µM |  | > 100 |  | > 100 µM |  | > 100 µM
